Key:
[1] = system: ABCA1 mRNA; assay: ABCA1 mRNA - J774 (qRT-PCR); type: cell-based, mouse
From the text: (§1) qRT-PCR. For cell samples, treated cells were lysed with RLT plus lysis buffer (Qiagen). RNA was isolated with Qiagen RNEASY® Plus columns per manufacturer instructions, then reverse-transcribed to cDNA using […]® III Reverse Transcriptase (200 U/μL, Invitrogen) per supplier protocol. qPCR experiments were either performed with TAQMAN® gene expression master mix (Invitrogen) on a StepOne™ qPCR instrument or with […]® SYBR® Green SuperMix (Quanta Biosciences) on CFX Connect™ Real-Time PCR Detection System (BioRad), with fold-change quantified by ΔΔCt. For animal samples, 100 mg tissue was homogenized in 1 mL acid-guanidinium-phenol based reagent sold under the tradename TRIZOL® (Ambion), mixed vigorously in chloroform, and separated by centrifugation. Aqueous layer containing RNA was added to Qiagen RNEASY® Plus column; remaining stops were as described above for cell lysates.

[2] = biological target: T1, LXRβ (Homo sapiens, UniProt P55055); assay: LanthaScreen TR-FRET coactivator assay LXRβ; type: biochemical; settings: read-out: EC50, LXRβ agonism, coactivator recruitment via TR-FRET
T1 construct: purchased Thermo Fisher Scientific
T1 sequence (P55055 212-460 limits assumed): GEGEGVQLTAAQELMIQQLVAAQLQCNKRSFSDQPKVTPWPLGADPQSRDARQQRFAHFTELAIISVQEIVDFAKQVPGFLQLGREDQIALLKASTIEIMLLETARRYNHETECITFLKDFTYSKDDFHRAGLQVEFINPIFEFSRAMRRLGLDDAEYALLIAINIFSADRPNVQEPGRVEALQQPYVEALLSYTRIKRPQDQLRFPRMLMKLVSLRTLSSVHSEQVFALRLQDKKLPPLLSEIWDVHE
Description: TR-FRET Receptor Binding Assays. LanthaScreen” TR-FRET coactivator assay kits for LXRβ (Thermo Fisher Scientific) and PPARγ (Thermo Fisher Scientific) were performed according to manufacturer instructions using low-binding black 384-well plates and Synergy Neo2 plate reader. […] Each compound dose was performed in quadruplicate on each plate, and each experiment was performed in triplicate.

[3] = system: ABCA1; assay: ABCA1-linked luciferase assay in HepG2 cells; type: cell-based
Description: Luciferase. HepG2 cells (RRID:CVCL 0027) purchased from ATCC and used without further validation were stably transfected with pGreenFire1-LXRE-in-ABCA1 plasmid, which contains the ABCA1 promoter sequence linked to a luciferase response element, then selected over multiple generations with puromycin and frozen in liquid N2. For assays, transfected cells were plated 24 hours in medium (Gibco) containing charcoal-stripped serum (Gemini), followed by a 24-hour treatment. Cells were lysed with passive lysis buffer (Promega), frozen at −80° C. for 15 minutes, and shaken at room temperature for 2 hours before quantification with luciferase assay system (Promega) on a Synergy Neo2 plate reader.

[4] = system: SREBF1 mRNA; assay: SREBF1 mRNA - HepG2 (qRT-PCR); type: cell-based, human
From the text: as §1

[5] = system: ABCA1; assay: ABCA1 firefly reporter assay in CCF-001 cells; type: cell-based; settings: ABCA1 firefly reporter assay in CCF-001 cells (Table 8)
[6] = system: J774 cells; assay: Lipopolysaccharide-stimulated J774 cells, TNFα and NOS2; type: cell-based; settings: co-treatment
From the text: as §1

[7] = biological target: T2, RXRγ (Homo sapiens, UniProt P48443); assay: RXRγ NHR screen, antagonist mode; settings: cell-based β-gal reporter assay, 10 μM
T2 sequence (P48443 1-463): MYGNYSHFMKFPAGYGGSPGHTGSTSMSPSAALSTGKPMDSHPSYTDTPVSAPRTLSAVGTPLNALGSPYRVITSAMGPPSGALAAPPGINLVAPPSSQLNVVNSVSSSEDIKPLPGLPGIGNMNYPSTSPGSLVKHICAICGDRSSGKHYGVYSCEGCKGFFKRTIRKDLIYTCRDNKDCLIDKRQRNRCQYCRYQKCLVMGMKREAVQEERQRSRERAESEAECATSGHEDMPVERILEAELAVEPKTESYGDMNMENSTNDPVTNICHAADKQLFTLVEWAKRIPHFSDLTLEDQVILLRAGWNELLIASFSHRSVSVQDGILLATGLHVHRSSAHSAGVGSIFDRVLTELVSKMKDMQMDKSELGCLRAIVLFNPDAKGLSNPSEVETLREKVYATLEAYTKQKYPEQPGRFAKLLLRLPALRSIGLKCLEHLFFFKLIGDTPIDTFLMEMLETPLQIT
Description: Receptor Binding Assays. Nuclear hormone (NHR) assays were performed by DiscoverX (Fremont, CA) on their NHR-Scan platform of cell-based protein-protein interaction assays. This platform uses a […] reporter that activates upon interaction of full-length receptor protein with steroid coactivator receptor peptides. In agonist mode, activity of CL2-57 at 10 μM was compared to maximal activity of published positive control agonists; in antagonist mode, reduction in activity with 10 μM CL2-57 from that observed at […] of published agonists was quantified.

[8] = system: ABCA1 protein; assay: ABCA1 protein - J774 (immunoblot); type: cell-based
Description: In vitro Immunoblot. Cells were lysed with RIPA buffer (Sigma) containing protease/phosphatase inhibitors (Cocktails II and III, respectively, EMD Millipore). Protein was quantified by BCA assay (Thermo Fisher Scientific). Denatured proteins were separated by gel electrophoresis (NuPage™ 4-12% Bis-Tris, Invitrogen) in MOPS running buffer at 120 V for 1 hour. Proteins were transferred to PDVF membranes (iBlot2). Membrane was blocked in 5% skim milk for 1 hour, incubated with primary antibody at 4° C. overnight, washed with TBST, and then incubated with HRP-linked secondary antibody (Cell Signaling Technology) for 1 hour at room temperature. After TBST wash, membrane was imaged using SUPERSIGNAL® West Femto™ substrate (Thermo Fisher Scientific) on Azure Biosystems c400 imager. Antibodies used: Abcam ab18180 (ABCA1, RRID:AB 444302), Thermo Fisher MA5-11685 (SREBP1, RRID:AB_10984077), Invitrogen MA5-15738 (GAPDH, RRID:AB_10977387).

CCOC(=O)c1cccc(NC(=O)c2sc(Cl)cc2S(=O)(=O)N(C)c2ccc(OCC)c(OCC)c2)c1 [CL2-57, ethyl 3-(5-chloro-3-(N-(3,4-diethoxyphenyl)-N-methylsulfamoyl)thiophene-2-carboxamido) benzoate]
ABCA1 mRNA - J774, activity of CL2-57 (10 μM) as % of T0901317 (1 μM) ([1]; 10 μM): 90% | ABCA1 mRNA ([1]; J774 macrophage cells): Increased | EC50 [2]: 1300 nM | ABCA1 luciferase, activity of CL2-57 (10 μM) as % of T0901317 (1 μM) ([3]; 10 μM): 127% | Emax, ABCA1-linked luciferase activity ([3]; HepG2 liver cells): 250 % of vehicle | EC50 ([3]; Homo sapiens, HepG2 liver cells, read-out: EC50, ABCA1-linked luciferase activity): 1800 nM | ABCA1-linked luminescence with CL2-57 titration ([3]; in the presence of RXR agonist bexarotene, increased from 2.5-fold): 4.5 fold | ABCA1-linked luminescence with CL2-57 titration ([3]; in the presence of pan-LXR agonist T0901317): no increase | SREBF1 mRNA - HepG2, activity of CL2-57 (10 μM) as % of T0901317 (1 μM) [4]: 39% | EC50 [5]: 817 nM | LPS-induced increase of NOS2 [6]: dose-dependently reversed | LPS-induced increase of TNFα [6]: dose-dependently reversed | Functional mode at RXRγ [7]: weak antagonist | ABCA1 protein - J774, activity of CL2-57 (10 μM) as % of T0901317 (1 μM) ([8]; 10 μM): 132% | ABCA1 protein ([8]; J774 macrophage cells): Increased

Source: US20240199572A1, “COMPOUNDS, COMPOSITIONS, AND METHODS FOR TREATING TYPE 2 DIABETES AND DEMENTIA” (THE BOARD OF TRUSTEES OF THE UNIVERSITY OF ILLINOIS, priority 2021, published 2024)
